Experimental data as given in US20240197682A1, “METHOD FOR TREATING NEUROLOGICAL DISEASES USING SUPRAMOLECULE POLYMER THERAPEUTICS” (The Regents of the University of California, priority 2022, published 2024).
Read-outs that look alike come from different tables or passages of the source.

Assay: Parallel Artificial Membrane Permeability Assay (PAMPA)
Format: in vitro ADME
Settings: for Papp at 4 hr, 200 uM: PAMPA, read-out: PAMPA: P_app; for PAMPA: P_app: 200 uM test compound, 4 hr
Description: 5 uL of 1% lecithin (VWR 0579) dissolved in n-dodecane (Sigma Aldrich D221104) was applied to each well of a MultiScreen IP PAMPA filter plate (Millipore MAIPSWU10) and allowed to equilibrate for 5 minutes. 300 uL of PBS was added to the acceptor plate and 150 uL of 200 uM test compound dissolved in PBS and 30% ethanol was added to the donor wells before incubating the donor plate in the acceptor plate for 4 hr at 500 rpm. 100 uL was sampled from the donor and acceptor wells and the concentrations were measured by liquid chromatography-mass spectrometry (SCIEX 4500) or UV-VIS plate reader (BMG).

Papp at 4 hr, 200 uM (pH 7.4, 200 uM test compound) [×10⁻⁶ cm/s] | Papp at 4 hr, 200 uM (pH 5.0, 200 uM test compound) [×10⁻⁶ cm/s] | PAMPA: P_app (pH 5.0) [×10e−6 cm/sec] | PAMPA: P_app (pH 7.4) [×10e−6 cm/sec] | Compound
2.28 | – | – | – | O=c1nc2c(ccn2C(F)(F)F)cn1-c1nc(N2CCCC2)oc1-c1ccc(F)cc1 [Compound 238, 3-[5-(4-fluorophenyl)-2-(pyrrolidin-1-yl)-1,3-oxazol-4-yl]-7-(trifluoromethyl)-2H,3H,7H-pyrrolo[2,3-d]pyrimidin-2-one]
37 | 46.7 | – | – | CC(=O)Nc1ncc2c(-c3ccccc3)nn(Cc3cccnc3)c2n1 [Compound 42, N-(3-phenyl-1-(pyridin-3-ylmethyl)-1H-pyrazolo[3,4-d]pyrimidin-6-yl)acetamide]
> 50 | 46.1 | – | – | CNC(=O)c1cc2c(-c3ccccc3)nn(-c3ccccc3)c2o1 [Compound 38, N-methyl-1,3-diphenyl-1H-furo[2,3-c]pyrazole-5-carboxamide]
1.46 | – | – | – | CC1CCc2cn(-c3nc(-c4ccccc4)oc3-c3ccc(F)cc3)c(=O)nc2O1 (centres unmarked) [Compound 92, 3-(5-(4-fluorophenyl)-2-phenyloxazol-4-yl)-7-methyl-3,5,6,7-tetrahydro-2H-pyrano[2,3-d]pyrimidin-2-one]
– | – | 27.1 | 26.4 | CC(=O)Nc1ncc2c(-c3ccccc3)nn(Cc3ccccc3)c2n1 [Compound 264]
– | – | >50 | >50 | CNC(=O)c1ncc2c(-c3ccc(F)cc3)nn(Cc3ccccc3)c2n1 [Compound 250]
– | > 50 | – | >50 | c1ccc(Cn2nc(-c3ccccc3)c3cnc(-c4cnn[nH]4)nc32)cc1 [Compound 284, 1-benzyl-3-phenyl-6-(1H-1,2,3-triazol-5-yl)-1H-pyrazolo[3,4-d]pyrimidine]
48 | 36 | – | – | O=c1nc2c(ccn2C2CC2)cn1-c1nc(-c2ccc(F)cc2)oc1-c1ccccc1 [Compound 213, 7-cyclopropyl-3-(2-(4-fluorophenyl)-5-phenyloxazol-4-yl)-3,7-dihydro-2H-pyrrolo[2,3-d]pyrimidin-2-one]
2 | 1.2 | – | – | CNC(=O)c1cnc2c(-c3cc(F)cc(F)c3)nn(Cc3ccccc3)c2n1 [Compound 262, 1-benzyl-3-(3,5-difluorophenyl)-N-methyl-1H-pyrazolo[3,4-b]pyrazine-6-carboxamide]
– | > 50 | – | >50.0 | CNC(=O)c1ncc2c(-c3ccnc(C(C)(F)F)n3)nn(-c3ccc(Cl)cc3)c2n1 [Compound 22, 1-(4-chlorophenyl)-3-(2-(1,1-difluoroethyl)pyrimidin-4-yl)-N-methyl-1H-pyrazolo[3,4-d]pyrimidine-6-carboxamide]
– | – | 7.9 | 13.5 | CNC(=O)c1cc2c(-c3ccccc3)nn(-c3ccc(F)cc3)c2o1 [Compound 292]
14.3 | 24.4 | – | – | COC(=O)c1cc2c(-c3ccccc3)nn(-c3ccccc3)c2[nH]1 [Compound 34, methyl 1,3-diphenyl-1,6-dihydropyrrolo[2,3-c]pyrazole-5-carboxylate]
– | – | 0.8 | 1.3 | O=C(Nc1ncc2c(-c3ccccc3)nn(-c3ccccc3)c2n1)C1CC1 [Compound 275]
– | > 50 | – | >50.0 | CNC(=O)c1cc2c(NC(=O)C3CC3)nn(-c3ccccc3)c2s1 [Compound 3, 3-(cyclopropanecarboxamido)-N-methyl-1-phenyl-1H-thieno[2,3-c]pyrazole-5-carboxamide]
– | > 50 | – | >50.0 | CNC(=O)c1ncc2c(-c3ccnc(C(F)(F)F)n3)nn(-c3ccc(Cl)cc3)c2n1 [Compound 37, 1-(4-chlorophenyl)-N-methyl-3-(2-(trifluoromethyl)pyrimidin-4-yl)-1H-pyrazolo[3,4-d]pyrimidine-6-carboxamide]
– | – | 2.8 | 3.6 | CCC(=O)Nc1ncc2c(-c3ccccc3)nn(-c3ccccc3)c2n1 [Compound 273]

Papp at 4 hr, 200 uM (pH 7.4, 200 uM test compound) [×10⁻⁶ cm/s] | Papp at 4 hr, 200 uM (pH 5.0, 200 uM test compound) [×10⁻⁶ cm/s] | PAMPA: P_app (pH 5.0) [×10e−6 cm/sec] | PAMPA: P_app (pH 7.4) [×10e−6 cm/sec] | Compound
16.7 | 14.9 | – | – | CNC(=O)c1cc2c(C3=CCCC3)nn(-c3ccccc3)c2s1 [Compound 31, 3-(cyclopent-1-en-1-yl)-N-methyl-1-phenyl-1H-thieno[2,3-c]pyrazole-5-carboxamide]
20.7 | 17.9 | – | – | CC(=O)Nc1ncc2c(-c3ccc(F)cc3)nn(Cc3ccccc3)c2n1 [Compound 263, N-(1-benzyl-3-(4-fluorophenyl)-1H-pyrazolo[3,4-d]pyrimidin-6-yl)acetamide]
8.9 | 8.8 | – | – | CC(=O)Nc1ncc2c(-c3ccccc3)nn(-c3ccccc3)c2n1 [Compound 272, N-(1,3-diphenyl-1H-pyrazolo[3,4-d]pyrimidin-6-yl)acetamide]
6.27 | – | – | – | O=c1nc2c(ccn2C2CC2)cn1-c1nc(-c2cnc(C3CC3)nc2)oc1-c1ccc(Cl)c(F)c1 [Compound 186, 3-[5-(4-chloro-3-fluorophenyl)-2-(2-cyclopropylpyrimidin-5-yl)-1,3-oxazol-4-yl]-7-cyclopropyl-2H,3H,7H-pyrrolo[2,3-d]pyrimidin-2-one]
– | – | >50 | >50 | CCn1nc(-c2ccccc2)c2cnc(NC(C)=O)nc21 [Compound 277]
5.82 | – | – | – | COc1nccc2cc(-c3nc(-n4ccc5cccnc5c4=O)c(-c4ccc(C(F)(F)F)cc4)o3)ccc12 [Compound 124, 7-(2-(1-methoxyisoquinolin-6-yl)-5-(4-(trifluoromethyl)phenyl)oxazol-4-yl)-1,7-naphthyridin-8(7H)-one]
– | > 50 | – | >50 | CC(=O)Nc1ncc2c(-c3ccccc3)nn(-c3cccnc3)c2n1 [Compound 276, N-(3-phenyl-1-(pyridin-3-yl)-1H-pyrazolo[3,4-d]pyrimidin-6-yl)acetamide]
> 50 | 40.3 | – | – | CNc1nc(=O)n(-c2nc(-c3cccc(C)c3)oc2-c2ccc(Cl)c(F)c2)cc1F [Compound 83, 1-(5-(4-chloro-3-fluorophenyl)-2-(m-tolyl)oxazol-4-yl)-5-fluoro-4-(methylamino)pyrimidin-2(1H)-one]
– | – | – | 0.664 | O=c1nc2c(ccn2C(F)(F)F)cn1-c1nc(N2CC(F)C2)oc1-c1ccc(F)cc1 [Compound 239]
– | – | 47.1 | >50 | CNC(=O)c1ncc2c(-c3ccccc3)nn(Cc3cccc(F)c3)c2n1 [Compound 249]
– | – | >50 | >50 | CNC(=O)c1ncc2c(-c3cc(F)cc(F)c3)nn(Cc3ccccc3)c2n1 [Compound 252]
1.63 | – | – | – | O=c1nc2c(ccn2C2CC2)cn1-c1nc(-c2ccnc(C3CC3)n2)oc1-c1ccc(F)cc1 [Compound 216, 7-cyclopropyl-3-[2-(2-cyclopropylpyrimidin-4-yl)-5-(4-fluorophenyl)-1,3-oxazol-4-yl]-2H,3H,7H-pyrrolo[2,3-d]pyrimidin-2-one]
– | – | >50 | >50 | CC(=O)Nc1ncc2c(-c3ccccc3)nn(Cc3ccccn3)c2n1 [Compound 278]
– | > 50 | – | >50.0 | Cc1cn(-c2nc(-c3ccccc3)oc2-c2ccccc2)c(=O)nc1OCCO [Compound 77, 1-(2,5-diphenyl-1,3-oxazol-4-yl)-4-(2-hydroxyethoxy)-5-methyl-1,2-dihydropyrimidin-2-one]
– | – | >50.0 | >50.0 | CNc1nc(=O)n(-c2nc(-c3cccc(Cl)c3)oc2-c2ccc(Cl)c(F)c2)cc1F [Compound 1]
